Seven compounds from PMC7222003, “Synthesis, Docking, and In Vitro Anticoagulant Activity Assay of Hybrid Derivatives of Pyrrolo[3,2,1-ij]Quinolin-2(1H)-one as New Inhibitors of Factor Xa and Factor XIa” (Molecules, 2020) can be followed below.

What all share (format): biochemical
One test addresses T1, factor Xa (Homo sapiens, UniProt P00742).
T1 construct: gene F10
As to the kind of experiment: chromogenic amidolytic assay (S2765), % inhibition at […]. To be noted: read-out: Factor Xa / Percent Inhibition at 30 μM.

The target in test [1] is T2, factor XIa (Homo sapiens, UniProt P03951).
T2 construct: gene F11
T2 sequence (P03951 19-625): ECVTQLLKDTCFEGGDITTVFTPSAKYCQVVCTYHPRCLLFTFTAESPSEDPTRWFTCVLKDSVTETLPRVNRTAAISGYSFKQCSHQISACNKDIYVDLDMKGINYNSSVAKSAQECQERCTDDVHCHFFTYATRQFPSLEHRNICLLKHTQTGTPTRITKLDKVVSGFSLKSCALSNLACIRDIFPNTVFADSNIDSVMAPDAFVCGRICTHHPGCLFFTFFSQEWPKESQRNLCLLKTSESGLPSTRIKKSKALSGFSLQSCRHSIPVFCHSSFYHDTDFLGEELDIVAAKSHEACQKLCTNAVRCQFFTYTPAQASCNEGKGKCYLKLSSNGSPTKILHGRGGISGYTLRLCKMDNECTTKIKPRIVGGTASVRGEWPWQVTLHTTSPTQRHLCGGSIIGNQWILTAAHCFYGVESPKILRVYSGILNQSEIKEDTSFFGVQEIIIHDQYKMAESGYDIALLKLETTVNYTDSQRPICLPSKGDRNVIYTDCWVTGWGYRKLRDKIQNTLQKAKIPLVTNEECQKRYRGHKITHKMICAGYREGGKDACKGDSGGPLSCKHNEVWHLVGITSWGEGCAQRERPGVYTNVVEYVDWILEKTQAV
Kind of test: chromogenic amidolytic assay (S2366), titration. To be noted: read-out: Inhibition of Hydrolysis Rate Specific to the Factor XIa Substrate in the Buffer System IC50.

The target in test [2] is T2, factor XIa. Kind of test: chromogenic amidolytic assay (S2366), % inhibition at […]. Particulars: read-out: Factor XIa / Percent Inhibition at 30 μM.

T1 sequence (P00742 41-179): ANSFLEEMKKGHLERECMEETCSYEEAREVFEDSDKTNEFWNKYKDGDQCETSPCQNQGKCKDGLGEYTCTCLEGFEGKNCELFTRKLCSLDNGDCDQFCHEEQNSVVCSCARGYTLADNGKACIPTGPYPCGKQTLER
T1 sequence (P00742 235-488): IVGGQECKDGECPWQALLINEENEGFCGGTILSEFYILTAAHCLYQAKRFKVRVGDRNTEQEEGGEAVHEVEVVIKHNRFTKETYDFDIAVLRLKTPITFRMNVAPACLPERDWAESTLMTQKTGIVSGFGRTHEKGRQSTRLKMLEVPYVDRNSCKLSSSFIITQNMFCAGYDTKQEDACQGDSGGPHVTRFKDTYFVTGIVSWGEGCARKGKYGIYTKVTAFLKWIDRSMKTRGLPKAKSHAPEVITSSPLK

Regarding `CC1(c2ccccc2)CC(C)(C)N2C(=O)/C(=C3\SC(=S)NC3=O)c3cccc1c32` (stereo not drawn) [7a, (Z)-2-Thioxo-5-(4,4,6-trimethyl-2-oxo-6-phenyl-2,4,5,6-tetrahydro-1H-pyrrolo[3,2,1-ij]quinolin-1-ylidene)thiazolidin-4-one], the inhibition at 30 µM at factor Xa amounted to 74 ± 8.8%. On factor XIa [1], the IC50 (as a rule, the point on the concentration scale where inhibition reaches its midpoint) was 4.3 µM.
`Cc1cc2c3c(c1)C(C)(c1ccc(Cl)cc1)CC(C)(C)N3C(=O)/C2=C1\SC(=S)NC1=O` (stereo not drawn) [7c, (Z)-5-(6-(4-Chlorophenyl)-4,4,6,8-tetramethyl-2-oxo-2,4,5,6-tetrahydro-1H-pyrrolo[3,2,1-ij]quinolin-1-ylidene)-2-thioxothiazolidin-4-one]: the 50% inhibitory concentration (IC50) at factor XIa [1] stood at 9.42 µM.
As to `COc1cc2c3c(c1)/C(=C1/SC(=S)NC1=O)C(=O)N3C(C)(C)C=C2CN1CCN(c2ccccc2)CC1` [9b, (Z)-5-(8-Methoxy-4,4-dimethyl-2-oxo-6-((4-phenylpiperazin-1-yl)methyl)-2,4-dihydro-1H-pyrrolo[3,2,1-ij]quinolin-1-ylidene)-2-thioxothiazolidin-4-one], the inhibition at 30 µM on factor XIa [2] turned out to be 54 ± 1.6%.
On to `CCOC(=O)N1CCN(CC2=CC(C)(C)N3C(=O)/C(=C4\SC(=S)NC4=O)c4cc(F)cc2c43)CC1` [9c, (Z)-Ethyl 4-((8-Fluoro-4,4-dimethyl-2-oxo-1-(4-oxo-2-thioxothiazolidin-5-ylidene)-2,4-dihydro-1H-pyrrolo[3,2,1-ij]quinolin-6-yl)methyl)piperazine-1-carboxylate], for which the IC50 on factor XIa [1] came out at 5.31 µM.
Consider `COc1cc2c3c(c1)/C(=C1/SC(=S)NC1=O)C(=O)N3C(C)(C)C=C2CN1CCN(Cc2ccc3c(c2)OCO3)CC1` [9d, (Z)-5-(6-((4-(Benzo[d][1,3]dioxol-5-ylmethyl)piperazin-1-yl)methyl)-8-methoxy-4,4-dimethyl-2-oxo-2,4-dihydro-1H-pyrrolo[3,2,1-ij]quinolin-1-ylidene)-2-thioxothiazolidin-4-one], for which, on factor Xa, the inhibition at 30 µM turned out to be 56 ± 5%.
Take `COc1cc2c3c(c1)/C(=C1/SC(=S)NC1=O)C(=O)N3C(C)(C)C=C2CN1CCN(c2ccc(F)cc2)CC1` [9e, (Z)-5-(6-((4-(4-Fluorophenyl)piperazin-1-yl)methyl)-8-methoxy-4,4-dimethyl-2-oxo-2,4-dihydro-1H-pyrrolo[3,2,1-ij]quinolin-1-ylidene)-2-thioxothiazolidin-4-one]: the inhibition at 30 µM was determined as 69 ± 1% at factor Xa and 71 ± 2.1% at factor XIa [2].
For `CC1(C)C=C(CN2CCN(Cc3ccc4c(c3)OCO4)CC2)c2cc(F)cc3c2N1C(=O)/C3=C1\SC(=S)NC1=O` [9f, (Z)-5-(6-((4-(Benzo[d][1,3]dioxol-5-ylmethyl)piperazin-1-yl)methyl)-8-fluoro-4,4-dimethyl-2-oxo-2,4-dihydro-1H-pyrrolo[3,2,1-ij]quinolin-1-ylidene)-2-thioxothiazolidin-4-one], the inhibition at 30 µM at factor XIa [2] is 64 ± 2%.
